Experimental findings from ChEMBL document CHEMBL1149794, “3D-QSAR and docking studies of aminopyridine carboxamide inhibitors of c-Jun N-terminal kinase-1” (Eur J Med Chem, 2008) are described below.

Molecules are shown by their SMILES.

Sequence of Mitogen-activated protein kinase 8 (P45983 whole entry): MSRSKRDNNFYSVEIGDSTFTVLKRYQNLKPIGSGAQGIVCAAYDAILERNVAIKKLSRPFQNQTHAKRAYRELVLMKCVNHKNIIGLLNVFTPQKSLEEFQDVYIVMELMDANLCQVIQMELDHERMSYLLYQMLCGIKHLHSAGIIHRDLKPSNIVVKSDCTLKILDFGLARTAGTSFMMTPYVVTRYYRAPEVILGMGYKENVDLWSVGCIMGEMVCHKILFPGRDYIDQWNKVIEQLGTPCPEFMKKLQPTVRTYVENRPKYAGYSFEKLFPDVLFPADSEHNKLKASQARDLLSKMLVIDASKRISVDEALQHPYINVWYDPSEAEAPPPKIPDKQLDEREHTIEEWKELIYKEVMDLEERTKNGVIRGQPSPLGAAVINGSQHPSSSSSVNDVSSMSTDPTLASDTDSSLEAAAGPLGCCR

This assay concerns the target Mitogen-activated protein kinase 8 (Homo sapiens, UniProt P45983). The assay is described as follows: Inhibition of JNK1.
What is called IC50 is the concentration that gives 50% inhibition. A low value points to greater potency in that assay. As for `C[C@@H](CO)Nc1nc(C(=O)NCc2ccc(S(C)(=O)=O)cc2)cc(N)c1C#N`, the IC50 is 180 nM.
`CS(=O)(=O)c1ccc(CNC(=O)c2cc(N)c(C#N)c(OCCC(=O)O)n2)cc1` had an IC50 of 1640 nM.
The compound `C[C@@H](CO)Oc1nc(C(=O)NCc2ccc(S(C)(=O)=O)cc2)cc(N)c1C#N` gave an IC50 of 22 nM.
Regarding `CC(C)[C@H](CO)Nc1nc(C(=O)NCc2ccc(S(C)(=O)=O)cc2)cc(N)c1C#N`, the midpoint of inhibition, the IC50, lay at 1500 nM.
